The target of one assay is T1, HA-tagged PA of FluB (Influenza B virus, UniProt Q9QLI9).
T1 construct: upstream of the initiation codon and antisense primers with a deleted stop codon; made in house; host or cells: human 293T cells, transiently transfected; unpurified cell lysate
Put plainly: biochemical. Format: binding.

A further assay concerns the target HA-tagged PA of FluA (Influenza A virus, UniProt Q2VC91). The experiment in a line: biochemical. Format: binding.

Where no end group is shown, it is not given here.

T1 sequence (Q9QLI9 whole entry): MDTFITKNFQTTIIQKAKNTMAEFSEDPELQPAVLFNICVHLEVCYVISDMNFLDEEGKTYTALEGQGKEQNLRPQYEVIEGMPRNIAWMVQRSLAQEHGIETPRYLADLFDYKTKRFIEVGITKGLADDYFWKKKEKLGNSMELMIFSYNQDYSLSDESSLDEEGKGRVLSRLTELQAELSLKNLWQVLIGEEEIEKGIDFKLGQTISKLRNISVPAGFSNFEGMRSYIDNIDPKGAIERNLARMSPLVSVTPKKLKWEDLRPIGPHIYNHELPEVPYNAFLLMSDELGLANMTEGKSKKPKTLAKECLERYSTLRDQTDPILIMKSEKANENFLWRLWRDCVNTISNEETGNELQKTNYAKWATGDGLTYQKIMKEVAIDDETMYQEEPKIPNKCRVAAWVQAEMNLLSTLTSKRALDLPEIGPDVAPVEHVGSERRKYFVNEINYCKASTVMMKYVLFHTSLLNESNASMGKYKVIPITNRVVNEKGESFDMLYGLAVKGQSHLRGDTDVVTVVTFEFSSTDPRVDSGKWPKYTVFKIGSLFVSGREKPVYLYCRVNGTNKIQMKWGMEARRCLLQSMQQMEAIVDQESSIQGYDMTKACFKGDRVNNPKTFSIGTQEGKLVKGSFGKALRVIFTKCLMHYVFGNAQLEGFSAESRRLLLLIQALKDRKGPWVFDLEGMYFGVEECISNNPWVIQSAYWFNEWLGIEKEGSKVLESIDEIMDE

The IC50 is the concentration needed to halve the response being measured. The low end stands for greater potency in that assay, the high end for weaker potency in that assay. As for `CSCC[C@H](N)C(=O)N[C@@H](CC(=O)O)C(=O)N[C@H](C(=O)N[C@@H](CC(N)=O)C(=O)N1CCC[C@H]1C(=O)N[C@H](C(=O)N[C@@H](CC(C)C)C(=O)N[C@@H](CC(C)C)C(=O)N[C@@H](Cc1ccccc1)C(=O)N[C@@H](CC(C)C)C(=O)N[C@@H](CCCCN)C(=O)N[C@H](C(=O)N1CCC[C@H]1C(=O)N[C@@H](C)C(=O)N[C@@H](CCC(N)=O)C(N)=O)C(C)C)[C@@H](C)O)C(C)C` [PB11-15 A], on HA-tagged PA of FluB, the IC50 was over 3000 nM.

Take MDVNPTLLFLK-NH2 [1–11]: the midpoint of inhibition on HA-tagged PA of FluA, the IC50, lay at 900 nM.

Compound MNINPYFLFIDVPIQ-NH2 [PB11-15 B] displayed a concentration for half-maximal inhibition (IC50) at HA-tagged PA of FluB of 45 nM.

The record behind these values is publication PMC2759517 (PLoS ONE, 2009).
